Several values for one entry are separate records, joined by “and”; a condition that tells them apart may be missing. Equal values may be shown once.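 Cultured in 96-well plates, cells were exposed to test compound for 48 hours across five concentrations. The concentration for 50% growth inhibition is given as GI50. TGI marks complete inhibition of growth.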
Tests used:
Test in all cases: inhibition of tumour cell growth, NCI panel, 48 h
[1] = tested on: HOP-92 NSCLC
[2] = tested on: LOX IMVI melanoma
[3] = tested on: MCF7 breast
[4] = tested on: NCI-H226 lung
[5] = tested on: NCI-H460 lung
[6] = tested on: OVCAR-3 ovarian
[7] = tested on: OVCAR-8 ovarian
[8] = tested on: SF-539 CNS
[9] = tested on: SK-OV-3 ovarian
[10] = tested on: U251 CNS

| Structure (SMILES) | GI50 [1] | TGI [1] | GI50 [2] | TGI [2] | GI50 [3] | TGI [3] | GI50 [4] | TGI [4] | GI50 [5] | TGI [5] | GI50 [6] | TGI [6] | GI50 [7] | TGI [7] | GI50 [8] | TGI [8] | GI50 [9] | TGI [9] | GI50 [10] | TGI [10] |
| --- | --- | --- | --- | --- | --- | --- | --- | --- | --- | --- | --- | --- | --- | --- | --- | --- | --- | --- | --- | --- |
| CN1CCN(c2ccc(C(=O)Nc3n[nH]c4ccc(Cc5cc(F)cc(F)c5)cc34)c(NC3CCOCC3)c2)CC1 | 0.446 µM and 1.04 µM | 3.03 µM and 2.4 µM | 1.35 µM and 1.34 µM | 2.7 µM and 2.69 µM | 0.983 µM and 0.485 µM | 5.73 µM and 1.93 µM | 1.47 µM and 1.36 µM | > 10 µM and 3.11 µM | 2.37 µM and 1.57 µM | 9.27 µM and 3.09 µM | 3.33 µM and 1.47 µM | > 10 µM and 2.84 µM | 1.73 µM | > 10 µM and 3.48 µM | 2.66 µM and 1.56 µM | > 10 µM and 2.92 µM | 6.65 µM and 1.7 µM | > 10 µM and 3.19 µM | 1.64 µM and 1.54 µM | 3.29 µM and 2.95 µM |
| N#Cc1cc(C#N)c(Cl)nc1N | – | > 10 µM | – | > 10 µM | – | > 10 µM | – | > 10 µM | – | > 10 µM | – | > 10 µM | – | > 10 µM | – | > 10 µM | – | > 10 µM | – | > 10 µM |
| C(=Nc1ccccc1)C1CCCC[N-]1.C(=Nc1ccccc1)C1CCCC[N-]1.[Cu+2].[O-][Cl+3]([O-])([O-])O (centres undefined) | 23 µM | > 73.9 µM | 0.0132 µM | 11.8 µM | 23.8 µM | > 100 µM | 21.6 µM | 50 µM | 11.2 µM | > 58.2 µM | 13 µM | 20.4 µM | > 39.7 µM | > 95.2 µM | 17.7 µM | 42.3 µM | 0.704 µM | 35.8 µM | 10.7 µM | 30.4 µM |
| CO[C@H](C(=O)[C@@H](O)[C@@H](C)O)[C@@H]1Cc2cc3cc(O[C@H]4C[C@@H](O[C@H]5C[C@@H](O)[C@H](O)C(C)O5)[C@H](O)C(C)O4)c(C)c(O)c3c(O)c2C(=O)[C@H]1O[C@H]1C[C@@H](O[C@H]2C[C@@H](O[C@H]3C[C@@H](OC)[C@H](O)C(C)O3)[C@@H](O)C(C)O2)C(O)(O)C(C)O1 (some centres undefined) | 0.103 µM | > 6.49 µM | 0.0745 µM | 3.68 µM | 0.0108 µM | > 9.61 µM | 0.0545 µM | 0.461 µM | 0.033 µM | > 25 µM | 0.24 µM | 7.23 µM | 0.225 µM | > 25 µM | 0.0938 µM | 1.68 µM | 0.113 µM | > 25 µM | 0.0329 µM | > 25 µM |
| CC1=NN(C(=O)c2ccccc2O)C(=O)/C1=C/c1ccc([N+](=O)[O-])cc1 | 0.609 µM | > 100 µM | 0.854 µM | > 40.9 µM | 0.392 µM | > 100 µM | 0.23 µM | 7.93 µM and 25.1 µM | 0.414 µM | > 100 µM | 1.98 µM | 7.05 µM and 1.32 µM | 1.44 µM | > 100 µM | 0.476 µM | 2.57 µM and 2.52 µM | 1.6 µM | > 100 µM | 0.516 µM | > 100 µM |
| Cc1c2cc[nH]c(=O)c2c(C)c2c1[nH]c1cc(OCCN3CCN(C)CC3)ccc12 | 0.798 µM | 5.46 µM | 0.484 µM | 1.9 µM | 0.577 µM | 6.73 µM | 0.503 µM | 2.38 µM | 0.418 µM | 1.84 µM | 1.24 µM | 7.7 µM | 0.457 µM | 6.08 µM | 1.31 µM | 2.77 µM | 0.614 µM | 5.9 µM | 0.953 µM | 6.66 µM |
| CCOc1ccc2nc(NC(=O)C(=O)C(C(=O)c3ccccc3-c3ccccc3)C3OC(=O)c4ccccc43)sc2c1 (centres undefined) | – | 46.8 µM | – | 39.4 µM | – | > 100 µM | – | 21.5 µM | – | 42.7 µM | – | 89.8 µM | – | 25.7 µM | – | 36.7 µM | – | > 72.6 µM | – | 31.7 µM |
| Cc1cc(C)nc(NC(N)=NCCc2ccccc2)n1 | 3.97 µM | 73.1 µM | 2.03 µM | 44.3 µM | 2.72 µM | 73.6 µM | 5.06 µM | > 100 µM | 3.43 µM | > 100 µM | 2.76 µM | 8.35 µM | 3.69 µM | 34.8 µM | 2.56 µM | 26.2 µM | 2.65 µM | 28.9 µM | 3.15 µM | > 100 µM |
| Cc1nc2ccc(CN(C)c3ccc(C(=O)N[C@@H](CCC(=O)O)C(=O)O)s3)cc2c(=O)[nH]1 | – | > 100 µM | – | > 100 µM | – | > 100 µM | – | > 100 µM | – | > 100 µM | – | > 100 µM | – | > 100 µM | – | – | – | > 100 µM | – | > 100 µM |
| CNC(=O)c1cc(COc2nnc(Nc3ccc(Cl)cc3)c3ccoc23)ccn1 | 2.9 µM and 3.78 µM | 14.4 µM and > 10 µM | 6.41 µM and > 10 µM | 25.1 µM and > 10 µM | 7.17 µM and > 10 µM | 36.1 µM and > 10 µM | 3.01 µM and 8.73 µM | 13.1 µM and > 10 µM | 4.21 µM and > 10 µM | 20.9 µM and > 10 µM | 11.1 µM and > 10 µM | 26.4 µM and > 10 µM | 3.66 µM and 5.78 µM | 17.1 µM and > 10 µM | 1.53 µM and 1.89 µM | 5.86 µM and > 10 µM | 3.48 µM and 9.73 µM | 13.2 µM and > 10 µM | 5.34 µM and 4.26 µM | 16.8 µM and > 10 µM |
